From patent publication US20230149409A1, “TREATMENT OF HUMAN PAPILLOMAVIRUS-ASSOCIATED CANCERS BY PD-L1 INHIBITORS” (priority 2021, published 2023) come the findings set out here.

Test [1] deals with T1, PD-⅟PD-L1 (recombinant human PD-L1 protein and human PD-1 protein) (Homo sapiens, UniProt Q9NZQ7).
T1 construct: Recombinant human PD-L1 protein (19-238) with a His-tag at the C-terminus; purchased AcroBiosystems PD1-H5229 (PD-L1); PD1-H5257 (PD-1)
The test can be described thus: Homogeneous Time-Resolved Fluorescence (HTRF) PD-1/PD-L1 binding assay. The note with it: 3 nM PD1, 10 nM PD-L1, 25° C., PBS pH 7.4. The method, then:
Homogeneous Time-Resolved Fluorescence (HTRF) PD-⅟PD-L1 Binding Assay
The assays were conducted in a standard black 384-well polystyrene plate with a final volume of 20 uL. Inhibitors were first serially diluted in DMSO and then added to the plate wells before the addition of other reaction components. The final concentration of DMSO in the assay was 1%. The assays were carried out at 25° C. in the PBS buffer (pH 7.4) with 0.05% Tween-20 and 0.1% BSA. […] PD-L1 and PD-1 proteins were diluted in the assay buffer and 10 uL was added to the plate well. Plates were centrifuged and proteins were preincubated with inhibitors for 40 minutes. The incubation was followed by the addition of 10 uL of HTRF detection buffer supplemented with Europium cryptate-labeled anti-human IgG (PerkinElmer-AD0212) specific for Fc and anti-His antibody conjugated to SureLight®-Allophycocyanin (APC, PerkinElmer-AD0059H). […] Final concentrations in the assay were - 3 nM PD1, 10 nM PD-L1, 1 nM europium anti-human IgG and 20 nM anti-His-Allophycocyanin. IC50 determination was performed by fitting the curve of percent control activity versus the log of the inhibitor concentration using the GraphPad Prism 5.0 software.
Background: Time-resolved FRET reads energy transfer from a long-lived donor to a nearby acceptor.

For test [2], the system named is PD-L1 (U2OS/PD-L1 cells, Jurkat-PD-1-SHP cells). In words: Src Homology Region 2 Domain-containing Phosphatase (SHP) assay. It counts as cell-based. The note with it: Homo sapiens; U2OS/PD-L1 + Jurkat-PD-1-SHP cells, 2 hours. The method, then: Example 1B. Src Homology Region 2 Domain-containing Phosphatase (SHP) Assay
U2OS/PD-L1 cells (DiscoveRx Corporation) were maintained in McCoy’s 5A medium with addition of 10% FBS, 0.25 µg/mL Puromycin. After removing the culture media, the cell medium was replaced with assay medium (RPMI1640 medium with 1% FBS). The U2OS/PD-L1 cells were then added in 384-well black clear bottom assay plate (CELLCOAT® Tissue Culture Plates, Greiner Bio-One) at 5000 cells per well in 20 uL assay medium. Test compounds were prepared by serial dilution in DMSO and 125 nL compound were first transferred to the 384 REMP plate well (Thermofisher) by ECHO liquid handler (Labcyte) followed with addition of 27.5 uL assay medium. 5 µL/well compounds in the assay medium were transferred to the cell plate with 0.05% DMSO in the final assay at 0.25 µM. Jurkat-PD-1-SHP cells (DiscoveRx Corporation) were cultured in RPMI1640 medium supplemented with 10% FBS, 250 µg/mL Hygromycin B, 500 µg/mL G418. After the replacement of culture media with assay medium, 5,000 Jurkat-PD-1-SHP cells in 20 µL were dispensed into each well. The assay plate was incubated at 37° C., 5% CO2 for 2 hours before 2.5 uL PathHunter reagent 1 (DiscoveRx Corporation) were added to each well. The assay plate was shaken for 1 min at 350 rpm in the dark followed with addition of 10 uL PathHunter reagent 2 (DiscoveRx Corporation). Chemiluminescent signal was recorded with TopCount reader (Perkin Elmer) after incubation at room temperature for 1 hour. Wells with DMSO were served as the positive controls and wells containing no cells were used as negative controls. IC50 determination was performed by fitting the curve of percentage of control activity versus the log of the compound concentration using the GraphPad Prism 6.0 software.

In test [3] the test system is PD-L1 (PD-L1 aAPC/CHO-K1 cells, Jurkat-PD-1-NFAT effector cells). The test can be described thus: Nuclear Factor of Activated T-cells (NFAT) assay. It counts as cell-based. The note with it: Cricetulus griseus; PD-L1 aAPC/CHO-K1 + Jurkat-PD-1-NFAT cells, 24 hours. The method, then: Nuclear Factor of Activated T-cells (NFAT) Assay
PD-L1 aAPC/CHO-K1cells (Promega) were maintained in F-12 medium with addition of 10% FBS, 200 µg/mL Hygromycin B, 250 µg/mL Geneticin (G418). […] The culture media of PD-L1 aAPC/CHO-K1 cells were first replaced with assay medium (RPMI1640 medium with 1% FBS). The PD-L1 aAPC/CHO-K1cells were then added in a white 384-well white clear bottom assay plate (CELLCOAT® Tissue Culture Plates, Greiner Bio-One) at 8000 per well in 10 uL assay medium. […] 5 uL compounds in the assay medium were transferred to the cells with 0.4% DMSO in the final assay at 2 µM. After removing the culture media, 10,000 Jurkat-PD-1-NFAT effector cells in 5 µL assay medium was dispensed into each well. The assay plate was incubated at 37° C., 5% CO2 for 24 hours. […] After 8 minutes incubation at room temperature, luminescence was read at with Pherastar microplate reader (BMG Labtech). The fold of induction (FOI) was calculated based on the ratio of luminescence normalized to the DMSO wells within each assay plate. The maximum percentage of induction was reported based on the ratio between the highest FOI of each compound and the maximum FOI of control compound within each assay plate. Wells with DMSO were served as the negative controls and wells containing control compound with the highest FOI were used as positive controls. EC50 determination was performed by fitting the curve of percent control activity versus the log of the compound concentration using the GraphPad Prism 6.0 software.

Test [4] deals with T2, PD-L1 on CD14+ cells in human whole blood (Homo sapiens, UniProt Q9NZQ7).
T2 construct: Cells were gated on CD14+ (BD Biosciences) and PD-L1 expression determined by mean fluorescence intensity; host or cells: CD14+ cells in normal human whole blood, stimulated with human interferon gamma
T2 sequence (Q9NZQ7 19-290): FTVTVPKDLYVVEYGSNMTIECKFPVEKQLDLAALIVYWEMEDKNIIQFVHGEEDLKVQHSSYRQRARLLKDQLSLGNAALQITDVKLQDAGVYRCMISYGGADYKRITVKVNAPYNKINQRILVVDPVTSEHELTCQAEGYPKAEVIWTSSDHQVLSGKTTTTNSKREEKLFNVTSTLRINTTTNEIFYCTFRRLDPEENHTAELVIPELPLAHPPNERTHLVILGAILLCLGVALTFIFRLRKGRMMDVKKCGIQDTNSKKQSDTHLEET
The test can be described thus: PD-L1 whole blood internalization assay. It counts as cell-based. The note with it: 1 ng/mL interferon γ, CD14+ gated, 24 hour. As for the experimental part:
PD-L1 Whole Blood Internalization Assay
To determine PD-L1 internalization in human whole blood, normal human blood (Biological Specialty Corp, Colmar. PA) was incubated in the presence or absence of a concentration range of test compounds and 1 ng/mL human interferon γ (R&D Systems Inc. Minn. MN) in a 96 well “2 mL Assay Block” (Corning, Corning NY) for 18-20 hours at 37 °C. Blood was then stained with PD-L1 (MIH1, eBioscience; or BD Biosciences San Jose, CA), CD14 (Life Technologies, Carlsbad, CA) for 30 minutes in the dark at room temperature. Whole Blood/red cells were lysed/fixed (lysis buffer BD Biosciences) for 5 minutes at 37 °C in the dark and then centrifuged at 1600 RPM for 5 minutes. Cells were resuspended in Stain Buffer (BD Bioscience, San Jose, CA) and transferred into 96 well round bottom plates (Coming). Cells were gated on CD14+ (BD Biosciences) and PD-L1 expression determined by mean fluorescence intensity (MFI) (BD LSRFortessa® X-20). IC50 determination was performed by fitting the curve of compound percent inhibition versus the log of the compound concentration using the GraphPad Prism 7.0 software.

T1 sequence (Q9NZQ7 19-238): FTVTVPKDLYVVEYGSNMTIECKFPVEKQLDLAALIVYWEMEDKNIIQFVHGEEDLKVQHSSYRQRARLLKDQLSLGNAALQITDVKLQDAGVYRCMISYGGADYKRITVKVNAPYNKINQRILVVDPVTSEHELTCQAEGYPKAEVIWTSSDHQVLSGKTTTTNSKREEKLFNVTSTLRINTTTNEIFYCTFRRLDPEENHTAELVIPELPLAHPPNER

One may read the IC50 as the concentration needed to halve the response being measured. The term EC50 denotes the concentration giving half of the maximal effect. Regarding `Cc1c(-c2nc3c(Cl)cc(CNCCO)cn3n2)cccc1-c1cccc(NC(=O)c2ccc(CNCCO)cn2)c1Cl` [Compound 2, N-(2-chloro-3′-(8-chloro-6-((2-hydroxyethylamino)methyl)-[1,2,4]triazolo[1,5-a]pyridin-2-yl)-2′-methylbiphenyl-3-yl)-5-((2-hydroxyethylamino)methyl)picolinamide], the IC50 in test [1] was less than 10 nM; in test [2], less than 100 nM. For the same compound, the EC50 in test [3] is less than 500 nM.
Take `Cc1c(NC(=O)c2ccc(CNCCO)cn2)cccc1-c1cccc(NC(=O)c2ccc(CNCCO)cn2)c1Cl` [Compound 7, N,N′-(2-chloro-2′-methylbiphenyl-3,3′-diyl)bis(5-((2-hydroxyethylamino)methyl)picolinamide)]: the IC50 in test [1], in test [2] and in test [4] was less than 10 nM throughout. Besides, in test [3], the EC50 was less than 100 nM.
On to `Cc1c(NC(=O)c2ccc(CN3CCC(C(=O)O)CC3)cn2)cccc1-c1cccc(NC(=O)c2ccc(CN3CC[C@@H](O)C3)cn2)c1Cl` [Compound 8, (R)-1-((6-(2′-chloro-3′-(5-((3-hydroxypyrrolidin-1-yl)methyl)picolinamido)-2-methylbiphenyl-3-ylcarbamoyl)pyridin-3-yl)methyl)piperidine-4-carboxylic acid], for which the IC50 in test [1] was less than 10 nM; in test [2], less than 100 nM. The EC50 in test [3] is less than 100 nM.
Take `Cc1cc(C(=O)Nc2cccc(-c3cccc(NC(=O)c4ccc(CN5CCCC5)cn4)c3Cl)c2C)ncc1CN1CCCC[C@H]1C(=O)O` [Compound 9, (S)-1-((6-((2′-chloro-2-methyl-3′-(5-(pyrnolidin-1-ylmethyl)picolinamido)-[1,1′-biphenyl]-3-yl)carbamoyl)-4-methylpyridin-3-yl)methyl)piperidine-2-carboxylic acid]: the half-inhibitory concentration (IC50) in test [1] and in test [2] was less than 10 nM throughout. Besides, the EC50 in test [3] is less than 100 nM.
In the case of `Cc1c(Nc2nccc3cc(CN4CC[C@@H](O)C4)cnc23)cccc1-c1cccc(NC(=O)c2nc3c(n2C)CCN(CC[C@H]2CC[C@H](C(=O)O)CC2)C3)c1Cl` [Compound 10, trans 4-(2-(2-(2-chloro-3′-(3-(((R)-3-hydroxypyrrolidin-1-yl)methyl)-1,7-naphthyridin-8-ylamino)-2′-methylbiphenyl-3-ylcarbamoyl)-1-methyl-6,7-dihydro-1H-imidazo[4,5-c]pyridin-5(4H)-yl)ethyl)cyclohexanecarboxylic acid], the IC50 in test [1] is less than 10 nM; in test [2], less than 10 nM; in test [4] it was less than 100 nM. Moreover, the EC50 in test [3] is less than 100 nM.
As for `Cc1c(Nc2ncnc3cc(CN4CC[C@@H](O)C4)cnc23)cccc1-c1cccc(NC(=O)c2nc3c(n2C)CCN(C2CCC(C)(C(=O)O)CC2)C3)c1Cl` (stereo partly drawn) [Compound 12], the half-maximal inhibitory concentration (IC50) in test [1] is less than 10 nM; in test [2], less than 10 nM; in test [4] it was less than 100 nM. The EC50 in test [3] was less than 100 nM.
For the compound `Cc1c(NC(=O)c2nc3c(n2C)CCN(C[C@H]2CC[C@H](C(=O)O)CC2)C3)cccc1-c1cccc(NC(=O)c2nc3c(n2C)CCN(C)C3)c1Cl` [Compound 15, trans-4-((2-(2′-chloro-3′-(1,5-dimethyl-4,5,6,7-tetrahydro-1H-imidazo[4,5-c]pyfidine-2-caiboxamido)-2-methylbiphenyl-3-ylcarbamoyl)-1-methyl-6,7-dihydro-1H-imidazo[4,5-c]pyridin-5(4H)-yl)methyl)cyclohexane-1-carboxylic acid], the IC50 in test [1] is less than 10 nM; in test [2], less than 10 nM; in test [4] it was less than 500 nM. In addition, the EC50 in test [3] is less than 100 nM.
Turning to `Cc1c(NC(=O)c2nc3c(n2C)CCN(CC[C@H]2CC[C@H](C(=O)O)CC2)C3)cccc1-c1cccc(NC(=O)c2nc3c(n2C)CCN(C)C3)c1Cl` [Compound 16, trans-4-(2-(2-((2′-chloro-3′-(1,5-dimethyl-4,5,6,7-tetrahydro-1H-imidazo[4,5-c]pyfidine-2-caiboxamido)-2-methyl-[1,1′-biphenyl]-3-yl)caibamoyl)-1-methyl-1,4,6,7-tetrahydro-5H-imidazo[4,5-c]pyridin-5-yl)ethyl)cyclohexane-1-carboxylic acid], the IC50 in test [1] was less than 10 nM; in test [2] it was less than 10 nM; in test [4] it was less than 100 nM. The EC50 in test [3] is less than 100 nM.
With `Cc1c(NC(=O)c2nc3c(n2C)CCN(C[C@H]2CC[C@@H](C(=O)O)CC2)C3)cccc1-c1cccc(NC(=O)c2nc3c(n2C)CCN(C)C3)c1Cl` [Compound 17, cis-4-((2-((2′-chloro-3′-(1,5-dimethyl-4,5,6,7-tetrahydro-1H-imidazo[4,5-c]pyfidine-2-caiboxamido)-2-methyl-[1,1′-biphenyl]-3-yl)caibamoyl)-1-methyl-1,4,6,7-tetrahydro-5H-imidazo[4,5-c]pyridin-5-yl)methyl)cyclohexane-1-carboxylic acid], the figures for the IC50 in test [1], in test [2] and in test [4] were less than 10 nM, less than 10 nM and less than 100 nM, respectively. Further, the EC50 in test [3] was less than 100 nM.
For the compound `Cc1c(Nc2nc(C(F)F)nc3cc(CN4CC[C@@H](O)C4)cnc23)cccc1-c1cccc(-c2nc3cc(CN4CC[C@@](C)(C(=O)O)C4)cc(C#N)c3o2)c1C` [Compound 26, (R)-1-((7-cyano-2-(3′-(2-(difluoromethyl)-7-(((R)-3-hydroxypyrrolidin-1-yl)methyl)pyrido[3,2-d]pyrimidin-4-ylamino)-2,2′-dimethylbipheiryl-3-yl)benzo[d]oxazol-5-yl)methyl)-3-methylpyrrolidine-3-carboxylic acid], the IC50 in test [1] was less than 10 nM; in test [4], less than 100 nM. Besides, the EC50 in test [3] is less than 100 nM.
